Measured values from patent US10669269B2, “Substituted N-(1H-indazol-4-yl)imidazo[1,2-a]pyridine-3-carboxamide compounds as type III receptor tyrosine kinase inhibitors” (ARRAY BIOPHARMA INC., priority 2010, dated 2020).
Counter-ions that a name gives are not always drawn.

Assays:
[1] = molecular target: T1, PDGFR beta (Homo sapiens, UniProt P09619); experiment: Phospho PDGFR LICOR Cell Assay (Example B); type: cell-based; conditions: averaged IC50; PDGFR beta phosphorylation in HS27 human fibroblast cell line, PDGF-BB stimulation 10 minutes, normalized to total ERK
T1 construct: endogenous in cells; host or cells: HS27 human fibroblast cell line
Method: Compounds were screened for inhibition of PDGFR beta phosphorylation in the HS27 human fibroblast cell line. Cells were seeded into a 96 well tissue culture plate, then incubated overnight in a 37° C./5% CO2 incubator. The following day, cells were treated for one hour with test compound dilutions. After stimulation with PDGF-BB ligand for 10 minutes, cells were washed with PBS and fixed in 3.7% formaldehyde in PBS for 10 minutes. This was followed by washing in PBS/0.2% Triton X-100 and permeabilizing in 100% MeOH for 10 minutes. Cells were incubated in blocking buffer for 1 hour. Antibodies to phosphorylated PDGFRβ and total ERK were added to the cells and incubated for 3 hours. After washing with PBS/0.2% Triton X-100, the cells were incubated with fluorescently-labeled secondary antibodies for an additional hour. Cells were then washed with PBS and analyzed for fluorescence at both wavelengths using the Odyssey Infrared Imaging System (LI-COR Biosciences). Phosphorylated PDGFR signal was normalized to total ERK signal. A standard 4-parameter logistic model was fit to the inhibitor dose response curves, with the IC50 being defined as the concentration of inhibitor giving 50 percent of control (POC).

[2] = molecular target: T2, cFMS (Homo sapiens, UniProt P07333); experiment: cFMS Cell-Based Assay (Example C); conditions: averaged IC50; phospho-cFMS in THP-1 cells stimulated with 250 ng/mL recombinant human MCSF; read-out: cFMS Cell ELISA IC50
T2 construct: THP-1 cells (human acute monocytic leukemia cell line) were serum-starved for 4 hours; endogenous in cells; host or cells: THP-1 cells (human acute monocytic leukemia cell line)
Method: The ability of compounds of Formula I to inhibit cFMS activation in cells was determined by the following assay. THP-1 cells (human acute monocytic leukemia cell line) were serum-starved for 4 hours prior to treatment with compounds of Formula I for 1 hour. The concentration of compounds of Formula I was varied over a 9-point, 3-fold dilution series with 5,000 nM typically being the highest dose. Cell culture and treatment were carried out in a humidified 37° C., 5% CO2 incubator. Treated cells were stimulated with 250 ng/mL recombinant human MCSF for 1 minute to induce activation of cFMS. Cells were lysed in a manner which preserves phosphoproteins, and the lysate was analyzed by ELISA (R&D Systems, Human Phospho-M-CSF R DuoSet IC DYC3268), in which total cFMS protein in the lysate is captured and phosphotyrosine residues of cFMS are detected. A standard curve, made using purified phospho-M-CSF R protein, was used to quantify phospho-c-FMS in compound-treated wells. A standard 4-parameter logistic model was fit to the inhibitor dose response curves, with the IC50 being defined as the concentration of inhibitor giving 50 percent of control (POC).

[3] = molecular target: T3, c-KIT (Homo sapiens, UniProt P10721); experiment: c-KIT Cell-Based Assay (Example D); conditions: averaged IC50; phospho-c-KIT in M-07e cells stimulated with 150 ng/ml recombinant human SCF; read-out: cKIT Cell ELISA IC50
T3 construct: M-07e cells (human acute megakaryoblastic leukemia cell line) were serum-starved for 4 hours; endogenous in cells; host or cells: M-07e cells (human acute megakaryoblastic leukemia cell line)
Method: The ability of compounds of Formula I to inhibit c-KIT activation in cells was determined by the following assay. M-07e cells (human acute megakaryoblastic leukemia cell line) were serum-starved for 4 hours prior to treatment with compounds of Formula I for 1 hour. The concentration of compounds of Formula I was varied over a 9-point, 3-fold dilution series with 5,000 nM typically being the highest dose. Cell culture and treatment were carried out in a humidified 37° C., 5% CO2 incubator. Treated cells were stimulated with 150 ng/ml recombinant human SCF for 4 minutes to induce activation of c-KIT. Cells were lysed in a manner which preserves phosphoproteins, and the lysate was analyzed by ELISA (R&D Systems, Human Phospho-SCF R DuoSet IC DYC3527), in which total c-KIT protein in the lysate is captured and phosphotyrosine residues of c-Kit are detected. A standard curve, made using purified phospho-SCF R protein, was used to quantify phospho-c-KIT in compound-treated wells. A standard 4-parameter logistic model was fit to the inhibitor dose response curves, with the IC50 being defined as the concentration of inhibitor giving 50 percent of control (POC).

T3 sequence (P10721 26-976): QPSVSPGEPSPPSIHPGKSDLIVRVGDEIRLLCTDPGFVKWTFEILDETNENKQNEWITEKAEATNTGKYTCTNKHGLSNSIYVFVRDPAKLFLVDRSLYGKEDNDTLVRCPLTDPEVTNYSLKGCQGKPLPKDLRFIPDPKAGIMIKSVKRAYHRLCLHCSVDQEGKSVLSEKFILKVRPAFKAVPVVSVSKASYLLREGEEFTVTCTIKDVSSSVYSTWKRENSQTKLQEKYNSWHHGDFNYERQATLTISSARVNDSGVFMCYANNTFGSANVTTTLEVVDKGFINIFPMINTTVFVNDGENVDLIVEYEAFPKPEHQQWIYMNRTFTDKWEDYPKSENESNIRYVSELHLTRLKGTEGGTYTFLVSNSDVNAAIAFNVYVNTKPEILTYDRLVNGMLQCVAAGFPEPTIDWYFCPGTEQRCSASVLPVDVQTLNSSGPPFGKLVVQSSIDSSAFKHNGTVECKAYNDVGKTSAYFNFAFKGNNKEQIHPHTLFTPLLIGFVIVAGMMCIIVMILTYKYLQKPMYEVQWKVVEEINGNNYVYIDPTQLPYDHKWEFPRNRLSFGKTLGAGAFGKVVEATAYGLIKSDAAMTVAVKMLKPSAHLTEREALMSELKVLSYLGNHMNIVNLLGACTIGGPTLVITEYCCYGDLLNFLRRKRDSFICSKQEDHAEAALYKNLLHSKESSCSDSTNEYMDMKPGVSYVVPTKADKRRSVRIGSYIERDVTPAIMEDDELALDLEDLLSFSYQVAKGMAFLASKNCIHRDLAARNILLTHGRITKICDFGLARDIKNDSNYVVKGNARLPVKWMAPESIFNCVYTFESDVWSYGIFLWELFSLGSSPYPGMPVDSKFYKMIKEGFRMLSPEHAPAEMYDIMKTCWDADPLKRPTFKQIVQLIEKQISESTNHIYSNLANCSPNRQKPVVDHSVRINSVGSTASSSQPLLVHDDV
T2 sequence (P07333 20-972): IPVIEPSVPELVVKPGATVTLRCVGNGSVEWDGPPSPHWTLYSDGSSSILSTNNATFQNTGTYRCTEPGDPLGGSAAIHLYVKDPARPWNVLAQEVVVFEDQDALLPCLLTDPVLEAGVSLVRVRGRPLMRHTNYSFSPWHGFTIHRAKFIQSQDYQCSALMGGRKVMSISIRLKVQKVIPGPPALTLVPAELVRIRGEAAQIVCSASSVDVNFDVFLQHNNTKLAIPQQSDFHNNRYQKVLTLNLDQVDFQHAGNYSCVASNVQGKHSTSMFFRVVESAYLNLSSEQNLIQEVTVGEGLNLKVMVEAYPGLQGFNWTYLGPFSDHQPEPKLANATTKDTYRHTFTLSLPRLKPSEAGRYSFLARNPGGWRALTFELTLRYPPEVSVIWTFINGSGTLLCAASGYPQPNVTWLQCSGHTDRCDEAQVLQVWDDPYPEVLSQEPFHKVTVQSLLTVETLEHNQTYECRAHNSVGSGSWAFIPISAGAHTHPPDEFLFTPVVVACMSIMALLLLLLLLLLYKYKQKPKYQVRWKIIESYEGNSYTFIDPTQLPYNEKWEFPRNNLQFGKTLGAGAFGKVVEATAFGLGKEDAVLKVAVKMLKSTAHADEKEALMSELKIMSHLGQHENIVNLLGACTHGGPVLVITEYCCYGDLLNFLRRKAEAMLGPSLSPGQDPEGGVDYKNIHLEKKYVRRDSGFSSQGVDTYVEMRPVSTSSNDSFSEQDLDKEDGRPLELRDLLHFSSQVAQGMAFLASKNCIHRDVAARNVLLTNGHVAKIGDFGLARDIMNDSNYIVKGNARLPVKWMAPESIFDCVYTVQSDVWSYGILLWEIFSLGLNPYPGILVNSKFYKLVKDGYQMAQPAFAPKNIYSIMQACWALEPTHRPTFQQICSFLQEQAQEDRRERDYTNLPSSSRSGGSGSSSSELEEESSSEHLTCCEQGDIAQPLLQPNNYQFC
T1 sequence (P09619 33-1106): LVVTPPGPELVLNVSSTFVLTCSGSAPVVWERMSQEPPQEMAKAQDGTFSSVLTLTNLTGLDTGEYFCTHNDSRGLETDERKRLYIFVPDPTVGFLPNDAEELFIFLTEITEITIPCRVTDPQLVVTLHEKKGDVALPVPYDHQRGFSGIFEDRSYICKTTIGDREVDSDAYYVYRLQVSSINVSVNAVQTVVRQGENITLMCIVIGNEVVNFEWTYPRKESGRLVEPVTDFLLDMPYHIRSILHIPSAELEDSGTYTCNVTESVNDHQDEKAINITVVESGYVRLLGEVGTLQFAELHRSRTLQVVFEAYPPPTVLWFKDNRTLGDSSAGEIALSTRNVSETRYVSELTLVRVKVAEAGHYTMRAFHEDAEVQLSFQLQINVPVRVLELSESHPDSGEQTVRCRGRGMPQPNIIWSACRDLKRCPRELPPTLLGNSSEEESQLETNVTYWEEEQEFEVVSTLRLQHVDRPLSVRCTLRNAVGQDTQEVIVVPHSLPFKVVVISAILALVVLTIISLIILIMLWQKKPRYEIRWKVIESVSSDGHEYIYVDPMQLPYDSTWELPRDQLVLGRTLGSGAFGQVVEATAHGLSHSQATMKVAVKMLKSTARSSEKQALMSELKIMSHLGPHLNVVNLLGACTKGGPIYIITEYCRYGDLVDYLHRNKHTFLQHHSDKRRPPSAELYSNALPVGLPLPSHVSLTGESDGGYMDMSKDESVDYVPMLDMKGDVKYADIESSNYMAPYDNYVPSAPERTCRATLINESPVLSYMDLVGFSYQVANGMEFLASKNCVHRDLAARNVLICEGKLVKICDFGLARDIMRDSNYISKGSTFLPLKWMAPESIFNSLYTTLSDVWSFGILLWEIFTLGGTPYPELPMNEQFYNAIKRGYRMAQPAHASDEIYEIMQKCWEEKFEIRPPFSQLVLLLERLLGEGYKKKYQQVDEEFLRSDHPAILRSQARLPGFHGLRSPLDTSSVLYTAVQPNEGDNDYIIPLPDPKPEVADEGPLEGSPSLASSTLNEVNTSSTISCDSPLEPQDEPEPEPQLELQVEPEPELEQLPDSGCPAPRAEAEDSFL

SMILES	IC50 [1] [nM]	IC50 [2] [nM]	IC50 [3] [nM]
Cc1nn(Cc2cc(C)n(C(C)C)n2)c2cccc(NC(=O)c3cnc4cc(OCCN5CC6(CN(C)C6)C5)ccn34)c12 [Example 8, N-(1-((1-Isopropyl-5-methyl-1H-pyrazol-3-yl)methyl)-3-methyl-1H-indazol-4-yl)-7-(2-(6-methyl-2,6-diazaspiro[3.3]heptan-2-yl)ethoxy)imidazo[1,2-a]pyridine-3-carboxamide]	32.6	33.6	122
Cc1nn(Cc2cc(C)n(C(C)C)n2)c2cccc(NC(=O)c3cnc4cc(OCCN5C[C@@H](C)N(C)[C@@H](C)C5)ccn34)c12 [Example 9, N-(1-((1-isopropyl-5-methyl-1H-pyrazol-3-yl)methyl)-3-methyl-1H-indazol-4-yl)-7-(2-((3S,5R)-3,4,5-trimethylpiperazin-1-yl)ethoxy)imidazo[1,2-a]pyridine-3-carboxamide]	166	21.2	143
Cc1nn(Cc2cc(C)n(C(C)C)n2)c2cccc(NC(=O)c3cnc4cc(OCCN5CCN(C(C)C)CC5)ccn34)c12 [Example 10, N-(1-((1-Isopropyl-5-methyl-1H-pyrazol-3-yl)methyl)-3-methyl-1H-indazol-4-yl)-7-(2-(4-isopropylpiperazin-1-yl)ethoxy)imidazo[1,2-a]pyridine-3-carboxamide]	40.8	25.3	141
Cc1nn(Cc2cc(C)n(C(C)C)n2)c2cccc(NC(=O)c3cnc4cc(OCCN5CCCN(C)CC5)ccn34)c12 [Example 11, N-(1-((1-isopropyl-5-methyl-1H-pyrazol-3-yl)methyl)-3-methyl-1H-indazol-4-yl)-7-(2-(4-methyl-1,4-diazepan-1-yl)ethoxy)imidazo[1,2-a]pyridine-3-carboxamide]	46.5	26.2	157
Cc1nn(Cc2csc(C(C)C)n2)c2cccc(NC(=O)c3cnc4cc(OCCN5CCN(C)CC5)ccn34)c12 [Example 12, N-(1-((2-isopropylthiazol-4-yl)methyl)-3-methyl-1H-indazol-4-yl)-7-(2-(4-methylpiperazin-1-yl)ethoxy)imidazo[1,2-a]pyridine-3-carboxamide]	44	11.4	50.4
Cc1nn(Cc2csc(C(C)C)n2)c2cccc(NC(=O)c3cnc4cc(OCCN5CC6(CN(C)C6)C5)ccn34)c12 [Example 13, N-(1-((2-isopropylthiazol-4-yl)methyl)-3-methyl-1H-indazol-4-yl)-7-(2-(6-methyl-2,6-diazaspiro[3.3]heptan-2-yl)ethoxy)imidazo[1,2-a]pyridine-3-carboxamide]	11.3	12.9	76.3
Cc1nn(Cc2csc(C(C)C)n2)c2cccc(NC(=O)c3cnc4cc(OCCN5CCN(C(C)C)CC5)ccn34)c12 [Example 15, 7-(2-(4-isopropylpiperazin-1-yl)ethoxy)-N-(1-((2-isopropylthiazol-4-yl)methyl)-3-methyl-1H-indazol-4-yl)imidazo[1,2-a]pyridine-3-carboxamide]	46.2	12	60.6
Cc1nn(Cc2cc(C)n(C(C)C)n2)c2cccc(NC(=O)c3cnc4cc(OCCN5CCN(C)[C@@H](C)C5)ccn34)c12 [Example 29, (S)-7-(2-(3,4-dimethylpiperazin-1-yl)ethoxy)-N-(1-((1-isopropyl-5-methyl-1H-pyrazol-3-yl)methyl)-3-methyl-1H-indazol-4-yl)imidazo[1,2-a]pyridine-3-carboxamide]	44.1	28.6	162
Cc1nn(Cc2csc(C(C)C)n2)c2cccc(NC(=O)c3cnc4cc(OCCN5CCN(C)[C@@H](C)C5)ccn34)c12 [Example 30, (S)-7-(2-(3,4-dimethylpiperazin-1-yl)ethoxy)-N-(1-((2-isopropylthiazol-4-yl)methyl)-3-methyl-1H-indazol-4-yl)imidazo[1,2-a]pyridine-3-carboxamide]	17.4	17.6	65.3
Cc1nn(Cc2ccn(C(C)C)n2)c2cccc(NC(=O)c3cnc4cc(OCCN5CCN(C)CC5)ccn34)c12 [Example 48, N-(1-((1-isopropyl-1H-pyrazol-3-yl)methyl)-3-methyl-1H-indazol-4-yl)-7-(2-(4-methylpiperazin-1-yl)ethoxy)imidazo[1,2-a]pyridine-3-carboxamide bis hydrochloride]	47.7	13.3	45.1
Cc1nn(Cc2ccn(C(C)C)n2)c2cccc(NC(=O)c3cnc4cc(OCCN5CCN(C(C)C)CC5)ccn34)c12 [Example 49, N-(1-((1-isopropyl-1H-pyrazol-3-yl)methyl)-3-methyl-1H-indazol-4-yl)-7-(2-(4-isopropylpiperazin-1-yl)ethoxy)imidazo[1,2-a]pyridine-3-carboxamide]	9.7	11.8	53.5
Cc1ccc(-c2ccn3c(C(=O)Nc4cccc5c4c(C)nn5Cc4cccc(C)n4)cnc3c2)cn1 [Example 50, N-(3-methyl-1-((6-methylpyridin-2-yl)methyl)-1H-indazol-4-yl)-7-(6-methylpyridin-3-yl)imidazo[1,2-a]pyridine-3-carboxamide di-hydrochloride]	–	5.8	–
Cc1cccc(Cn2nc(C)c3c(NC(=O)c4cnc5cc(OCCN6CCCC6)ccn45)cccc32)n1 [Example 55, N-(3-methyl-1-((6-methylpyridin-2-yl)methyl)-1H-indazol-4-yl)-7-(2-(pyrrolidin-1-yl)ethoxy)imidazo[1,2-a]pyridine-3-carboxamide dihydrochloride]	305	40.1	–

Second part, the compound after the results:

IC50 [1] [nM]	IC50 [2] [nM]	IC50 [3] [nM]	SMILES
–	8.2	–	Cc1cccc(Cn2nc(C)c3c(NC(=O)c4cnc5cc(-c6c(C)n[nH]c6C)ccn45)cccc32)n1 [Example 69, 7-(3,5-dimethyl-1H-pyrazol-4-yl)-N-(3-methyl-1-((6-methylpyridin-2-yl)methyl)-1H-indazol-4-yl)imidazo[1,2-a]pyridine-3-carboxamide]
–	79.5	–	COCCNCCc1ccn2c(C(=O)Nc3cccc4c3c(C)nn4Cc3cccc(C)n3)cnc2c1 [Example 74, 7-(2-(2-methoxyethylamino)ethyl)-N-(3-methyl-1-((6-methylpyridin-2-yl)methyl)-1H-indazol-4-yl)imidazo[1,2-a]pyridine-3-carboxamide]
–	131	–	O=C(Nc1cccc2c1cnn2CC1CCCCO1)c1cnc2ccccn12 (stereo not shown) [Example 128, N-(1-((tetrahydro-2H-pyran-2-yl)methyl)-1H-indazol-4-yl)imidazo[1,2-a]pyridine-3-carboxamide]
114	442	–	COCCOc1ccn2c(C(=O)Nc3cccc4c3cnn4Cc3cccc(O)c3)cnc2c1 [Example 130, N-(1-(3-hydroxybenzyl)-1H-indazol-4-yl)-7-(2-methoxyethoxy)imidazo[1,2-a]pyridine-3-carboxamide]
1000	99.1	–	COCCOc1ccn2c(C(=O)Nc3cccc4c3cnn4-c3ccccc3)cnc2c1 [Example 133, 7-(2-Methoxyethoxy)-N-(1-phenyl-1H-indazol-4-yl)imidazo[1,2-a]pyridine-3-carboxamide]
